Experimental data from patent US6911443B2 (Bayer Aktiengesellschaft, priority 2000, dated 2005).

The compounds below were run against T1, human Syk (GST-Syk) (Homo sapiens, UniProt P43405) (assay: Syk tyrosine kinase inhibitory assay). Conditions: Table 17; IC50 classes; read-out: Activity grade.
T1 construct: A cDNA fragment encoding human Syk openreading frame was cloned; made in house; host or cells: Sf21 insect cells (baculovirus, transfer vector pAcG2T)
Assay type: biochemical
Source text: [Syk Tyrosine Kinase Inhibitory Assay]
(1) Preparation of Syk Protein
A cDNA fragment encoding human Syk openreading frame was cloned from total RNA of human Burkitt's lymphoma B cell lines, Raji (American Type Culture Collection), with the use of RT-PCR method. The cDNA fragment was inserted into pAcG2T (Pharmingen, San Diego, Calif.) to construct a baculovirus transfer vector. Then the vector, together with the linearized baculovirus (BaculoGold™, Pharmingen), was used to transfect Sf21 cells (Invitrogen, San Diego, Calif.).
Generated recombinant baculovirus was cloned and amplified in Sf21 cells. Sf21 cells were infected with this amplified high titer virus to produce a chimeric protein of Syk kinase fused by glutathione-S-transferase (GST).
The resulting GST-Syk was purified with the use of glutathione column (Amersham Pharmacia Biotech AB, Uppsala, Sweden) according to the manufacturer's instruction.
(2) Synthesize of a Peptide
Next, a peptide fragment of 30 residues including two tyrosine residues, […], was synthesized by a peptide synthesizer. The N-terminal of the fragment was then biotinylated to obtain biotinylated activation loop peptide (AL).
(3) The Measurement of Syk Tyrosine Kinase Activity
All reagents were diluted with the Syk kinase assay buffer (50 mM Tris-HCl (pH 8.0), 10 mM MgCl2, 0.1 mM Na3VO4, 0.1% BSA, 1 mM DTT). First, a mixture (35 μl) including […] of GST-Syk and 0.5 μg of AL was put in each well in 96-well plates. Then 5 μl of a test compound in the presence of 2.5% dimethylsulfoxide (DMSO) was added to each well. To this mixture was added […] (10 μl) to initiate the kinase reaction. The final reaction mixture (50 μl) consists of 0.65 nM GST-Syk, 3 μM AL, 30 μM ATP, a test compound, 0.25% DMSO, and a Syk kinase assay buffer.
The mixture was incubated for 1 hr at room temperature, and the reaction was terminated by the addition of 120 μl of termination buffer (50 mM Tris-HCl (pH 8.0), 10 mMEDTA, 500 mM NaCl, 0.1% BSA). The mixture was transferred to streptavidin-coated plates and incubated for 30 min at room temperature to combine biotin-AL to the plates. After washing the plates with Tris-buffered saline (TBS) (50 mM Tris-HCl (pH 8.0), 138 mM NaCl, 2.7 mM KCl) containing 0.05% Tween-20 for 3 times, 100 μl of antibody solution consisting of 50 mM Tris-HCl (pH 8.0), 138 mM NaCl, 2.7 mM KCl, 1% BSA, 60 ng/ml anti-phosphotyrosine monoclonal antibody, 4G10 (Upstate Biotechnology), which is labeled with europium by Amersham Pharmacia's kit in advance, was added and incubated at room temperature for 60 min. After washing, 100 μl of enhancement solution (Amersham pharmacia Biotech) was added and then time-resolved fluorescence was measured by multi-label counter ARVO (Wallac Oy, Finland) at 340 nm for excitation and 615 nm for emission with 400 msec of delay and 400 msec of window.

IC50 | Compound
2 to 10 µM | COc1ccc(-c2cc3nccn3c(N(C(C)=O)c3ccccc3)n2)cc1OC(C)=O [Example 10]

Same assay, conditions: in vitro; compounds as yielded by solid phase synthesis, purity about 40 to 90%

Activity grade (IC50 class) | Compound
C-D | COC(=O)[C@@H]1CCCN1c1nc(-c2ccc(OC)c(OC)c2)cc2nccn12 [Example 9-71]
C-D | CCOC(=O)CN1CCN(c2nc(-c3ccc(OC)c(OC)c3)cc3nccn23)CC1 [Example 9-73]
C-D | COc1cc(-c2cc3nccn3c(Nc3ccccc3S(N)(=O)=O)n2)ccc1OCCN1CCOCC1 [Example 9-97]

Same assay, conditions: in vitro; compounds as yielded by solid phase synthesis, purity about 40 to 90%; read-out: Activity grade (IC50 class)

IC50 | Compound
2 to 10 µM | CCOC(=O)N1CCN(c2nc(-c3ccc(OC)c(OC)c3)cc3nccn23)CC1 [Example 9-72]
0.5 to 2 µM | COc1ccc(-c2cc3nccn3c(N(C)C3CCN(C)C3)n2)cc1OC (stereo not shown) [Example 9-74]
0.5 to 2 µM | COc1ccc(-c2cc3nccn3c(N3CCSCC3)n2)cc1OC [Example 9-75]
2 to 10 µM | COc1ccc(-c2cc3nccn3c(N(C)CCN(C)C)n2)cc1OC [Example 9-76]
2 to 10 µM | CCOC(=O)CN(C)c1nc(-c2ccc(OC)c(OC)c2)cc2nccn12 [Example 9-77]
2 to 10 µM | COc1ccc(-c2cc3nccn3c(N3CC[C@H](N(C)C)C3)n2)cc1OC [Example 9-78]
0.5 to 2 µM | COc1ccc(CNc2nc(-c3ccc(OC)c(OC)c3)cc3nccn23)c(OC)c1 [Example 9-80]
0.5 to 2 µM | COc1ccc(-c2cc3nccn3c(NCCN)n2)cc1OC [Example 9-81]
2 to 10 µM | COc1ccc(-c2cc3nccn3c(NCCN3CCCCC3)n2)cc1OC [Example 9-82]
< 0.5 µM | COc1ccc(-c2cc3nccn3c(NCCc3c[nH]c4ccccc34)n2)cc1OC [Example 9-83]
0.5 to 2 µM | COc1ccc(-c2cc3nccn3c(NCCc3ccccn3)n2)cc1OC [Example 9-84]
2 to 10 µM | COC(=O)[C@H](Cc1c[nH]c2ccccc12)Nc1nc(-c2ccc(OC)c(OC)c2)cc2nccn12 [Example 9-85]
0.5 to 2 µM | COc1ccc(-c2cc3nccn3c(NC3CCCC[C@@H]3N)n2)cc1OC (stereo partly shown) [Example 9-86]
< 0.5 µM | CCCNc1nc(-c2ccc(OC)c(OC)c2)cc2nccn12 [Example 9-87]
< 0.5 µM | COC(=O)CSc1nc(-c2ccc(OC)c(OC)c2)cc2nccn12 [Example 9-88]
0.5 to 2 µM | CCOC(=O)CSc1nc(-c2ccc(OC)c(OC)c2)cc2nccn12 [Example 9-89]
< 0.5 µM | COC(=O)CCSc1nc(-c2ccc(OC)c(OC)c2)cc2nccn12 [Example 9-90]
0.5 to 2 µM | COc1ccc(-c2cc3nccn3c(SCC(C)C(=O)O)n2)cc1OC (stereo not shown) [Example 9-91]
0.5 to 2 µM | CCCCOC(=O)CSc1nc(-c2ccc(OC)c(OC)c2)cc2nccn12 [Example 9-92]
0.5 to 2 µM | COc1ccc(-c2cc3nccn3c(Sc3cccc(C(=O)O)c3)n2)cc1OC [Example 9-93]
< 0.5 µM | COc1ccc(-c2cc3nccn3c(Sc3ccc(CCC(=O)O)cc3OC)n2)cc1OC [Example 9-94]

IC50 | Compound
< 0.5 µM | COc1ccc(Nc2nc(-c3ccc(OCCN4CCOCC4)c(OC)c3)cc3nccn23)c(C(N)=O)c1 [Example 9-95]
< 0.5 µM | COc1ccc(Nc2nc(-c3ccc(OCCN4CCOCC4)c(OC)c3)cc3nccn23)cc1 [Example 9-96]
< 0.5 µM | COc1ccc(Nc2nc(-c3ccc(N4CCOCC4)c(OC)c3)cc3nccn23)c(C(N)=O)c1 [Example 9-98]
< 0.5 µM | COc1cc(-c2cc3nccn3c(Nc3ccccc3C(N)=O)n2)ccc1N1CCOCC1 [Example 9-99]
< 0.5 µM | COc1ccc(-c2cc3ncnn3c(Nc3ccccc3)n2)cc1OC [Example 9.79]
2 to 10 µM | COc1ccc(-c2cc3nccn3c(N3C(=O)c4ccccc43)n2)cc1OC [Example 9]
< 0.5 µM | COc1ccc(-c2cc3nccn3c(N(C(C)=O)c3ccccc3)n2)cc1OC(C)=O [Example 10]
0.5 to 2 µM | COc1ccc(-c2cc3nccn3c(Nc3ccccc3C(=O)N(C)C)n2)cc1OC [Example 11-1]
< 0.5 µM | COc1ccc(Nc2nc(-c3ccc(OC)c(OC)c3)cc3nccn23)c(C)c1 [Example 11-2]
< 0.5 µM | COc1ccc(-c2cc3nccn3c(Nc3cccc4c3C(=O)NC4=O)n2)cc1OC [Example 11-3]
< 0.5 µM | COC(=O)C(C)(C)Cc1ccc(Nc2nc(-c3ccc(OC)c(OC)c3)cc3nccn23)cc1 [Example 11-4]
< 0.5 µM | COc1ccc(-c2cc3nccn3c(Nc3ccc4c(c3)CCC(C(=O)O)C4)n2)cc1OC (stereo not shown) [Example 11-5]
2 to 10 µM | COc1ccc(-c2cc3nccn3c(N(C)c3ccc(S(=O)(=O)O)cc3)n2)cc1OC [Example 11-6]
< 0.5 µM | COc1ccc(-c2cc3nccn3c(Nc3cccc(C)c3)n2)cc1OC [Example 11-7]
< 0.5 µM | COc1ccccc1Nc1nc(-c2ccc(OC)c(OC)c2)cc2nccn12 [Example 11-8]
< 0.5 µM | COc1ccc(-c2cc3nccn3c(Nc3ccc(C)cc3)n2)cc1OC [Example 11-9]
0.5 to 2 µM | COc1ccc(-c2cc3nccn3c(Nc3ccccc3OC(F)(F)F)n2)cc1OC [Example 11-10]
< 0.5 µM | COc1ccc(-c2cc3nccn3c(Nc3cccc(C(N)=O)c3)n2)cc1OC [Example 11-11]
< 0.5 µM | COc1ccc(-c2cc3nccn3c(Nc3ccc4[nH]nnc4c3)n2)cc1OC [Example 11-12]
2 to 10 µM | COc1ccc(-c2cc3nccn3c(Nc3ccccc3C(=O)NN)n2)cc1OC [Example 11-13]
< 0.5 µM | COc1ccc(-c2cc3nccn3c(Nc3ccc(/C=C/C(=O)OC(C)(C)C)cc3C(N)=O)n2)cc1OC [Example 11-14]

IC50 | Compound
< 0.5 µM | COc1ccc(Nc2nc(-c3ccc(OC)c(OC)c3)cc3ncnn23)cc1 [Example 11-15]
< 0.5 µM | COc1ccc(-c2cc3nccn3c(Nc3ccccc3)n2)cc1OC [Example 11-16]
< 0.5 µM | COc1ccc(Nc2nc(-c3ccc(OC)c(OC)c3)cc3nccn23)cc1 [Example 11-17]
< 0.5 µM | COc1ccc(-c2cc3nccn3c(N(C)c3ccccc3)n2)cc1OC [Example 11-18]
< 0.5 µM | COc1ccc(-c2cc3nccn3c(Nc3ccc(SCC(=O)O)cc3)n2)cc1OC [Example 11-20]
< 0.5 µM | COc1ccc(-c2cc3nccn3c(Nc3ccc(CCCC(=O)O)cc3)n2)cc1OC [Example 11-21]
< 0.5 µM | COc1ccc(-c2cc3nccn3c(Nc3ccc(CC(=O)O)cc3)n2)cc1OC [Example 11-22]
< 0.5 µM | COc1ccc(-c2cc3nccn3c(Nc3ccc(C(=O)NCC(=O)O)cc3)n2)cc1OC [Example 11-23]
< 0.5 µM | COc1ccc(-c2cc3nccn3c(Nc3ccc(CCC(=O)O)cc3)n2)cc1OC [Example 11-24]
0.5 to 2 µM | COc1ccc(-c2cc3nccn3c(N(C)c3ccccc3OC)n2)cc1OC [Example 11-25]
< 0.5 µM | COC(=O)c1ccc(Nc2nc(-c3ccc(OC)c(OC)c3)cc3nccn23)cc1 [Example 11-26]
< 0.5 µM | COc1ccc(-c2cc3nccn3c(Nc3cccc(S(=O)(=O)CCO)c3)n2)cc1OC [Example 11-27]
< 0.5 µM | COc1ccc(-c2cc3nccn3c(Nc3ccc(C(=O)O)cc3)n2)cc1OC [Example 11-28]
< 0.5 µM | COc1ccc(-c2cc3nccn3c(Nc3ccc(O)cc3)n2)cc1OC [Example 11-29]
< 0.5 µM | COc1ccc(-c2cc3nccn3c(Nc3cccc(O)c3)n2)cc1OC [Example 11-30]
< 0.5 µM | COc1ccc(-c2cc3nccn3c(Nc3ccccc3O)n2)cc1OC [Example 11-31]
< 0.5 µM | COc1ccc(-c2cc3nccn3c(Nc3ccc(N4CCOCC4)cc3)n2)cc1OC [Example 11-32]
< 0.5 µM | COc1ccc(-c2cc3nccn3c(Nc3ccc([N+](=O)[O-])cc3)n2)cc1OC [Example 11-33]
< 0.5 µM | COc1ccc(-c2cc3nccn3c(Nc3ccc(N(C)C)cc3)n2)cc1OC [Example 11-34]
< 0.5 µM | CCC(=O)c1ccc(Nc2nc(-c3ccc(OC)c(OC)c3)cc3nccn23)cc1 [Example 11-35]
< 0.5 µM | COc1ccc(-c2cc3nccn3c(Nc3ccc(C(N)=O)cc3)n2)cc1OC [Example 11-36]
